Reference: patent publication US11485701B2, “Insect repellent compounds and compositions, and methods thereof” (Iowa State University Research Foundation, Inc., priority 2016, dated 2022)

Legend:
Type in all cases: in vivo
[1] = tested on: Northern house mosquitoes (Culex pipiens); assay: Short-term spatial repellency, static air repellency chamber; conditions: for pest or weed control at 0.5 %: Culex pipiens
Method in brief: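 Adult females 5-7 days post-emergence, ~20 per chamber, exposed in a 9×60 cm glass tube to filter paper treated with compound in acetone, the other end untreated. Distribution scored at 15-150 min as % spatial repellency; acetone controls, four replicates.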

[2] = tested on: Northern house mosquitoes (Culex pipiens); assay: Contact irritancy assay (percent escape from treated chamber); conditions: organza netting treated with 0.5% solution; 10 min; FIG. 14
Protocol: (§1) Northern house mosquitoes (Culex pipiens), a primary carrier of West Nile virus in eastern North America, were obtained from an established colony in the Medical Entomology Laboratory in the Department of Entomology at Iowa State University of Science and Technology, Ames Iowa. Mosquito rearing was performed by established protocols that are maintained by the Medical Entomology Laboratory. Repellency bioassays were performed with adult female mosquitoes that were 5-7 days post-emergent. […] Mosquitoes, prior to testing, were held at 27° C., 80% relative humidity, and on a 16:8 hr light:dark photoperiod.
Organza were cut to approximately 11.5 cm×8 cm to wrap around the inside of the contact irritancy chamber. This piece of organza was treated with 1.5 mL of 0.5% or 0.05% solution of test compound in acetone. This organza was allowed to air-dry for 15 minutes before introducing them into the chamber. Organza sheets were draped around the inside wall of the metallic chamber and fastened to the walls of the chamber with small magnets. […] After ten minutes, the butterfly valve was once again closed and the number of mosquitoes was counted in the clear “counting” chamber. […]

[3] = tested on: Northern house mosquitoes (Culex pipiens); assay: Long-term spatial repellency, static air repellency chamber, filter papers air-dried 5 hours; conditions: air-dried 5 hours; for pest or weed control at 0.5 %: Culex pipiens
Protocol: as §1
Repellency bioassays were performed using a static air repellency chamber, which has been described in various publications by the Pesticide Toxicology Laboratory at Iowa State University of Science and Technology, Ames, Iowa Briefly, a 9-cm×60-cm glass tube was used to monitor the distribution of mosquitoes at 15 min, 30 min, 60 min, 90 min, 120 min, and 150 min after introducing mosquitoes into the static air repellency chamber. Treated filter papers were treated with 1 mL of 0.5% solution in acetone of the terpenoid analogs created in the lab and were exposed to ambient air for 5 hours before they were introduced into the spatial chamber for testing. This is a slight modification of the method described in Example 2, so as to evaluate the residual repellent character of these compounds on a treated surface after 5 hours. One end of the spatial chamber contained a treated filter paper, whereas the other (untreated) end of the spatial chamber was not treated with compound. Controls contained filter papers treated with acetone, the solvent used to make the 0.5% solutions. Each end of the repellency chamber was secured with a 100-mm Petri dish using celluloid tape. After securing the petri dishes with corresponding treated or untreated filter papers to the spatial chamber, mosquitoes were anesthetized with carbon dioxide, and approximately 20 female mosquitoes were placed into each repellency chamber for one replicate. The opening of the spatial repellency chamber was secured with celluloid tape to prevent their escape. Chambers were oriented in opposite directions from the previous replicate to account for any directional effect. Four replicates were performed for data analysis for both the control and treatment groups.
Data for spatial repellency, the percentage repellency, is reported at each of the respective time points in the figures and tables mentioned below in this disclosure. The percentage spatial repellency is the examination of the distribution of mosquitoes and is calculated using the following equation: […]

[4] = tested on: female Aedes aegypti (Orlando strain, 1952); assay: Minimum effective dosage testing, human skin (treated cloth patch)
Protocol: The test mosquitoes were female Aedes aegypti (Orlando strain, 1952) from the colony maintained at United States Department of Agriculture-Agricultural Research Service-Center for Medical, Agricultural and Veterinary Entomology (USDA-ARS-CMAVE) in Gainesville, Fla. Pupae were obtained from the colony and newly emerged mosquitoes were maintained on 10% sugar water and kept in laboratory cages at an ambient temperature of 28±1° C. and RH of 35-60%. Host seeking behavior was pre-selected in nulliparous female mosquitoes aged 6-10 days, indicated by flight upwind towards a potential host, from stock cages using a hand-draw box and trapped in a collection trap.
After 500 (±10%) females were collected in the trap, they were transferred to a test cage (approximately 59,000 cm^3 with dimensions 45×37.5×35 cm) and allowed to acclimatize for 17.5 (±2.5) min before testing was initiated. Just prior to the experiment, the pieces of treated cloth are removed from the vials and stapled onto card stock tabs (5×3 cm). Each piece of the cards and the assembly were hung on a drying rack using masking tape for 3-5 min. Participants in the study used latex gloves to pull a nylon stocking over their arm. A Velcro™-sealed vinyl sleeve was then placed over the forearm. […] The purpose of the nylon stocking was to produce a barrier between the dried cloth and the skin, thereby avoiding direct contact of chemical to skin. The dried cloth assembly was affixed over the opening in the sleeve and held in place with masking tape. Participants then inserted their arm with the sleeve and patch into a screened cage that contained female Ae. Aegypti mosquitoes. Tests were conducted on each control or treated patch for 1 min. A control patch (acetone solvent only, then dried) was tested prior to the start of experiments and evaluation of the same untreated control patch after every 10 tests. If 5 landings were not received on the control patch in 30 s, then tests were discontinued for 60 min. At the conclusion of testing the control patch was tested again. If five landings were not received within 30 s, the data for the replicate was discarded. When testing a patch treated with a candidate repellent, if approximately 1% or 5 mosquito bites were received during this one minute test, this compound was considered to have failed, i.e., was not repellent at that concentration. If a treated cloth patch received 0-4 bites within a minute, then it was considered as passed, i.e., repellent at that concentration of the test compound. The median concentration patch was tested in the first round and treated patches were then tested successively at higher or lower concentrations depending upon whether the previous patch failed or passed, respectively.
The time interval between each tested patch was <90 seconds until 10 successive tests had been conducted. If appreciable, mortality had occurred during testing, the number of knocked down mosquitoes are estimated and additional female mosquitoes are added to the cage to keep the available mosquitoes at approximately 500. The estimate of the MED was the lowest concentration that passed for each candidate. Observed MED values for each candidate compound were averaged across participants and reported as a mean MED±standard error.

[5] = 0.25 h, filter paper, 1 mL of 0.5% solution in acetone, air-dried 15 min, 15 min after introduction, read-out: Short-term Percentage repellency 15 min
[6] = 1.5 h, filter paper, 1 mL of 0.5% solution in acetone, air-dried 15 min, 90 min, read-out: Short-term Percentage repellency 90 min
[7] = 2.5 h, filter paper, 1 mL of 0.5% solution in acetone, air-dried 15 min, 150 min, read-out: Short-term Percentage repellency 150 min
[8] = 0.25 h, 1 mL of 0.5% solution in acetone, 15 min, read-out: Long-term Percentage repellency 15 min
[9] = 1.5 h, 1 mL of 0.5% solution in acetone, 90 min, read-out: Long-term Percentage repellency 90 min
[10] = 2.5 h, 1 mL of 0.5% solution in acetone, 150 min, read-out: Long-term Percentage repellency 150 min
[11] = treated cloth patch, 1 min test, high dose 1.5 mg/cm^2

SMILES	pest or weed control at 0.5 % [1, 5]	pest or weed control at 0.5 % [1, 6]	pest or weed control at 0.5 % [1, 7]	Short-term repellency at low concentration, in words ([1]; filter paper treated with 0.1%, FIG. 6)	Contact irritancy, percentage escape [2]	pest or weed control at 0.5 % [3, 8]	pest or weed control at 0.5 % [3, 9]	pest or weed control at 0.5 % [3, 10]	Short-term percentage repellency 30 min ([1]; 1 mL of 0.5% solution in acetone, 30 minutes)	Short-term Percentage repellency 15 min ([1]; filter paper, 1 mL of 0.5% solution in acetone, air-dried 15 min, 15 min after introduction)	Proportion to DEET ([4]; average MED relative to DEET)	Minimum Effective Dosage, Average ([4]; mean across subjects)	Minimum Effective Dosage, Subject 1 [4, 11]	Minimum Effective Dosage, Subject 2 [4, 11]	Minimum Effective Dosage, Subject 3 [4, 11]	Long-term percentage repellency 30 min ([3]; 0.5% solution, 30 minutes)	Long-term Percentage repellency 15 min ([3]; 1 mL of 0.5% solution in acetone, 15 min)
CC(C)=CCCC(C)CCOC(=O)C1CC1 (stereo not drawn) [Compound 1035A, citronellyl cyclopropanecarboxylate]	22.5%	92.5%	90%	significant levels of repellency	80%	70%	80%	62.5%	–	–	–	–	–	–	–	–	–
CCN(CC)C(=O)c1cccc(C)c1 [DEET, N,N-diethyl-meta-toluaminde, reference compound]	–	–	–	–	–	–	–	–	53.3%	20%±15.3	1.000	0.019 mg/cm^2	0.023 mg/cm^2	0.023 mg/cm^2	0.011 mg/cm^2	22.5%	32.5%±14.4
CC1CCC(C(C)(C)O)C(O)C1 (stereo not drawn) [p-menthane-3,8-diol, reference compound]	12.5%	12.5%	20%	–	approximately 65%	7.5%	5%	5%	–	–	–	–	–	–	–	–	–
